The experiment can be described thus: mitochondrial fusion inhibitors, confirmation, cell-based, chemical genetic, wild-type and mutant (AID 1361). Particulars: Cell-based mitochondrial fusion phenotype, imaging.
Setting [1] is: mutant cells, measured here: mutant cell line IC50.

The structures appear in SMILES notation. Active and inactive are the calls of the source. No rule for the calls is given here.

Usually IC50 stands for the concentration that gives 50% inhibition.

On to `COC(=O)c1ccc(-c2sc3nc(N4CCOCC4)c4c(c3c2N)CCCC4)o1`, for which the IC50 (WT cells) is > 25 µM (inactive) and the IC50 under setting [1] was greater than 25 µM.
The matching figures for `Cc1ccc(C(C)C)c(OCCNC(=S)Nc2cccc3ccccc23)c1`: 6.51 µM and greater than 25 µM.
For `O=C(c1ccco1)N1CCN(C(=O)C2c3ccccc3Oc3ccccc32)CC1`, the IC50 runs as follows: (WT cells) > 25 µM (inactive); under setting [1], greater than 25 µM.
The matching figures for `CCOC(=O)c1c(-c2ccc(C)cc2)csc1NC(=O)C1CCCO1` (stereo not drawn): > 25 µM (inactive) and greater than 25 µM.
For `CCOc1cccc(Oc2ncccc2C(=O)/C(C#N)=C/N(C)C)c1`, in that order: > 25 µM (inactive) and greater than 25 µM.
The matching figures for `Clc1ccc(Cn2c(/C=C/c3ccco3)nc3ccccc32)cc1`: 12.6 µM and greater than 25 µM.
Consider `Cc1nn(Cc2ccccc2Cl)c(C)c1NC(=O)NC12CC3CC(CC(C3)C1)C2`, for which the IC50 (WT cells) was > 25 µM (inactive) and the IC50 under setting [1] is greater than 25 µM.
The matching figures for `Cc1cc(C)cc(NC(=S)NCCSc2ccc(Cl)cc2)c1`: 4.68 µM and 6.34 µM.
Consider `CCCOc1ccc(Cc2c(Cl)nc(SC)nc2N(C)C)cc1`, for which the IC50 runs as follows: (WT cells) 9.94 µM; under setting [1], greater than 25 µM.
The matching figures for `CCCCNC(=S)N(C)/N=C/c1c(F)c(F)c(F)c(F)c1F`: > 25 µM (inactive) and greater than 25 µM.
The matching figures for `CC(C)C(=O)N(c1cc2sc(=O)oc2c2ccccc12)S(=O)(=O)c1cccs1`: 7.48 µM and 20.7 µM.
For `CCC(C)n1c(SCc2ccccc2)nc2ccsc2c1=O` (stereo not drawn), in that order: 22.9 µM and greater than 25 µM.
For `COc1ccc(Nc2nc(-c3ccccc3)c3ccccc3n2)cc1`, the IC50 was 10.7 µM (WT cells) and greater than 25 µM under setting [1].
As for `Cc1[nH][nH]c(=O)c1C(c1c(C)[nH][nH]c1=O)c1cn(Cc2ccccc2Cl)c2ccccc12`, the IC50 (WT cells) is > 25 µM (inactive) and the IC50 under setting [1] was greater than 25 µM.
The matching figures for `COCCNC(=S)N(CCc1c(C)[nH]c2ccc(Cl)cc12)Cc1cccs1`: 8.8 µM and greater than 25 µM.
The matching figures for `COc1ccccc1NC(=O)c1cccc(NC(=O)c2ccco2)c1`: > 25 µM (inactive) and greater than 25 µM.
The matching figures for `CCCC/C(C)=C/[C@@H](NP(=O)(c1ccccc1)c1ccccc1)c1ccccc1`: 9.84 µM and greater than 25 µM.
For `CCOC(=O)c1c(-c2cccs2)csc1NC(=O)C(C)(C)C`, the IC50 was 24.5 µM (WT cells) and greater than 25 µM under setting [1].
For `CC(C)C(=O)N1CCC(CN=Cc2c(O)n(C3CCCCC3)c(=O)n(C3CCCCC3)c2=O)CC1`, in that order: 23 µM and greater than 25 µM.
In the case of `COC(=O)C1=C(O)C(C(=O)OC)C(c2ccc(C)cc2)C(C#N)(C#N)C1c1ccc(C)cc1` (stereo not drawn), the IC50 is, setting by setting: (WT cells) 4.71 µM; under setting [1], greater than 25 µM.
`Cc1coc(C)c1C(=O)CC1(O)C(=O)Nc2cc(Cl)cc(Cl)c21` (stereo not drawn): the IC50 is, setting by setting: (WT cells) > 25 µM (inactive); under setting [1], greater than 25 µM.
For `COc1cccc(CNC(=O)CNC(=S)N(Cc2ccccc2)Cc2ccccc2F)c1`, in that order: 23.1 µM and greater than 25 µM.
For `O=[N+]([O-])c1ccc(/C=N/Nc2nc(N3CCCCCC3)nc(N3CCCCCC3)n2)o1`, in that order: 8.58 µM and greater than 25 µM.
The matching figures for `CCCCC(=O)O[C@H]1CC[C@H]2[C@@H]3CCc4cc(O)ccc4[C@H]3CC[C@]12C`: 12.3 µM and greater than 25 µM.
With `O=C(CCc1ccccc1)Nc1ncc2c(n1)CCCC2=O`, the IC50 by setting is: (WT cells) > 25 µM (inactive); under setting [1], greater than 25 µM.
For `CCOC(=O)c1c(N)sc(C(O)(C(F)(F)F)C(F)(F)F)c1-c1ccccc1`, in that order: 20.3 µM and greater than 25 µM.
With `CCOc1ccc(C(=O)C(CCC(CN(C)C)C(=O)c2ccc(OCC)cc2)CN(C)C)cc1` (stereo not drawn), the IC50 is, setting by setting: (WT cells) 20.4 µM; under setting [1], greater than 25 µM.
For `COc1ccc(C2CC(c3ccc(Br)cc3)=NN2C(=O)c2cccnc2)cc1` (stereo not drawn), in that order: 18.2 µM and greater than 25 µM.
For `Cc1ccc(-n2cc(CNCCc3cscn3)c(-c3ccc(F)cc3)n2)cc1`, in that order: > 25 µM (inactive) and greater than 25 µM.
For `COC(=O)c1ccc(NC(=O)Nc2ccc(F)c(Cl)c2)cc1`, in that order: 19.4 µM and greater than 25 µM.
Turning to `CN1/C(=C\C(=O)Nc2ccc(Br)cc2)C(C)(C)c2ccccc21`, the IC50 by setting is: (WT cells) 5.66 µM; under setting [1], 16.7 µM.
The matching figures for `CC(C)C(=O)Nc1ccc(C(=O)NNC(=O)CCCOc2ccc(Cl)cc2Cl)cc1`: > 25 µM (inactive) and greater than 25 µM.
For `Cc1nn(-c2cc(C)c3ccccc3n2)c2c1C1C(C2)C1(C)C` (stereo not drawn), the IC50 is, setting by setting: (WT cells) > 25 µM (inactive); under setting [1], greater than 25 µM.
For `CCc1nnc(NC(=O)Nc2ccccc2OC)s1`, in that order: > 25 µM (inactive) and greater than 25 µM.
For `CN1CCC2(CC1)Nc1nc(SCc3ccc(Cl)cc3)nn1C1=C2CN(C)CC1`, in that order: > 25 µM (inactive) and greater than 25 µM.
For `NNC(=O)c1cc2c(N3CCC(Cc4ccccc4)CC3)ncnc2s1`, in that order: 17.6 µM and greater than 25 µM.
Turning to `CC(C)(C)c1ccc(S(=O)(=O)Nc2ccc(Cc3ccncc3)cc2)cc1`, the IC50 runs as follows: (WT cells) 23.3 µM; under setting [1], greater than 25 µM.
For `CC(C)(C)N/N=C1\CC(c2ccccc2)Oc2ccccc21` (stereo not drawn), the IC50 is 14.5 µM (WT cells) and greater than 25 µM under setting [1].
For the molecule `CC(C)N1C(=S)SC(C)(C)C1n1oc(=O)n(-c2ccc(Cl)c(Cl)c2)c1=O` (stereo not drawn), the IC50 (WT cells) was > 25 µM (inactive) and the IC50 under setting [1] was greater than 25 µM.
The matching figures for `CC1CC1C(=O)OCC(=O)NCc1ccc(Cl)cc1Cl` (stereo not drawn): > 25 µM (inactive) and greater than 25 µM.
On to `COc1ccc(OCC(O)CNCc2ccco2)cc1` (stereo not drawn), for which the IC50 is, setting by setting: (WT cells) > 25 µM (inactive); under setting [1], greater than 25 µM.
The matching figures for `CCOC(=O)C1CCN(S(=O)(=O)c2c(C)n[nH]c2C)CC1`: > 25 µM (inactive) and greater than 25 µM.
For `Cc1cccc(NC(=S)NNC(=O)COc2ccc(Cl)cc2Cl)c1`, in that order: 10.9 µM and 21 µM.
For `O=C(Cc1c(O)c2ccccc2[nH]c1=O)NCc1ccccc1F`, in that order: > 25 µM (inactive) and greater than 25 µM.
On to `Cc1ccc(Cn2nc3c(cc2=O)CCc2ccccc2-3)cc1`, for which the IC50 (WT cells) was > 25 µM (inactive) and the half-inhibitory concentration (IC50) under setting [1] was greater than 25 µM.
For `Cc1ccc(CNCC(O)(c2ccccc2)c2ccc(Cl)cc2)cc1` (stereo not drawn), in that order: 18.7 µM and 24.9 µM.
For `O=[N+]([O-])c1ccccc1S(=O)(=O)NCCC1=CCCCC1`, in that order: > 25 µM (inactive) and greater than 25 µM.
Consider `COc1cc(/C=N/NC(=O)CCc2ccccc2)ccc1O`, for which the IC50 reads like this: (WT cells) > 25 µM (inactive); under setting [1], greater than 25 µM.
The matching figures for `Cc1ccc(-c2nn(-c3ccccc3)cc2CSC(=N)N)cc1`: > 25 µM (inactive) and greater than 25 µM.

The record behind these values is PubChem BioAssay AID1361 (SRMLSC, 2008).
